PubChem BioAssay (NCI)
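Briefly, cells in 96-well plates were exposed to five compound concentrations for 48 h, and endpoints were estimated by linear interpolation. Abbreviation: GI50, concentration required for 50% inhibition of growth. TGI denotes the concentration required for complete inhibition of growth.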

Assays:
Experiment in all cases: NCI tumour cell line growth inhibition, 48 h
BT-549 breast = system: BT-549 breast
SR leukemia = system: SR leukemia
MDA-MB-435 = system: MDA-MB-435
MDA-MB-231 breast = system: MDA-MB-231 breast
A498 renal = system: A498 renal
HOP-18 NSCLC = system: HOP-18 NSCLC
XF 498 CNS = system: XF 498 CNS
SNB-78 CNS = system: SNB-78 CNS
P388/ADR leukemia = system: P388/ADR leukemia
DMS 273 small cell lung = system: DMS 273 small cell lung
KM20L2 colon = system: KM20L2 colon
DLD-1 colon = system: DLD-1 colon
M19-MEL melanoma = system: M19-MEL melanoma
SN12K1 renal = system: SN12K1 renal
P388 leukemia = system: P388 leukemia
DMS 114 small cell lung = system: DMS 114 small cell lung

SMILES: O=c1[nH]c(-c2ccc(Cl)cc2)cc2ccsc12
- TGI (BT-549 breast): > 100 µM
- TGI (SR leukemia): 12.9 µM

SMILES: CCOC(=O)C1=C(C)N(c2ccc(Cl)cc2)C2(O)C=CC(Nc3ccc(Cl)cc3)=C3C(=O)N(c4ccccc4)C(=O)C312 (stereo not drawn)
- TGI (MDA-MB-435): 5.29 µM
- TGI (BT-549 breast): 4.69 µM
- TGI (MDA-MB-231 breast): 35.2 µM
- TGI (A498 renal): 9.33 µM
- TGI (SR leukemia): > 100 µM

SMILES: COc1cccc2c1C(=O)c1c(O)c3c(c(O)c1C2=O)CC(O)(C(C)=O)CC3O (stereo not drawn)
- TGI (HOP-18 NSCLC): 41.5 µM
- TGI (XF 498 CNS): 1.31 µM
- TGI (SNB-78 CNS): 48 µM
- TGI (P388/ADR leukemia): 9.23 µM
- TGI (DMS 273 small cell lung): 15.6 µM
- TGI (A498 renal): 17.2 µM
- TGI (KM20L2 colon): 48.2 µM
- TGI (DLD-1 colon): 40.9 µM
- TGI (M19-MEL melanoma): 15.7 µM
- TGI (SN12K1 renal): 10.5 µM
- TGI (P388 leukemia): 9.69 µM
- TGI (DMS 114 small cell lung): 24.1 µM

SMILES: CN1CCN(Cn2nc(-c3cc(F)c(Cl)cc3Cl)oc2=S)CC1
- GI50 (MDA-MB-435): 40.5 µM
- TGI (MDA-MB-435): > 100 µM
- GI50 (MDA-MB-231 breast): 17.8 µM
- TGI (MDA-MB-231 breast): 62.5 µM
